Laboratory results published in patent publication US7087375B1, “Method for determining the mechanism of HIV RT inhibitors” (priority 2000, dated 2006).

Legend:
[1] = system: HXB2 site-directed mutant M41L, T215Y; assay type: cell-based; settings: virus M41L
[2] = system: HXB2 site-directed mutant D67N, K70R; assay type: cell-based; settings: virus D67N
[3] = system: HXB2 site-directed mutant M41L, M184V, T215Y; assay type: cell-based; settings: virus M41L
[4] = system: HXB2 site-directed mutant M41L, D67N, K70R, M184V, T215Y; assay type: cell-based; settings: virus M41L
[5] = system: HXB2 site-directed mutant T69S-SS; assay type: cell-based; settings: virus T69S-SS
[6] = system: HXB2 site-directed mutant M41L, T69S-SS, T215Y; assay type: cell-based; settings: virus M41L
[7] = system: HXB2 site-directed mutant T69S-SG; assay type: cell-based; settings: virus T69S-SG
[8] = system: HXB2 site-directed mutant M41L, T69S-SG, T215Y; assay type: cell-based; settings: virus M41L
[9] = system: HXB2 site-directed mutant T69S-AG; assay type: cell-based; settings: virus T69S-AG
[10] = system: HXB2 site-directed mutant M41L, T69S-AG, T215Y; assay type: cell-based; settings: virus M41L
[11] = system: HXB2 site-directed mutant V75T; assay type: cell-based; settings: virus V75T
[12] = system: HXB2 site-directed mutant Q151M; assay type: cell-based; settings: virus Q151M
wild type HXB2 virus = assay: HIV drug susceptibility assay (recombinant virus, MT-4 cells); settings: Human immunodeficiency virus 1, HXB2, MT4, read-out: mean IC50 for the wild type control virus
Method: Phenotypic susceptibility of these viable recombinant viruses to nucleoside analogs was then determined. […] Fold resistance values were calculated by dividing the mean 50% inhibitory concentration (IC50) for a recombinant virus from a mutant clone by the mean IC50 for recombinant wild type virus (HXB2).

| Structure (SMILES) | Fold resistance in IC50 relative to HXB2 [1] [fold] | Fold resistance in IC50 relative to HXB2 [2] [fold] | Fold resistance in IC50 relative to HXB2 [3] [fold] | Fold resistance in IC50 relative to HXB2 [4] [fold] | Fold resistance in IC50 relative to HXB2 [5] [fold] | Fold resistance in IC50 relative to HXB2 [6] [fold] | Fold resistance in IC50 relative to HXB2 [7] [fold] | Fold resistance in IC50 relative to HXB2 [8] [fold] | Fold resistance in IC50 relative to HXB2 [9] [fold] | Fold resistance in IC50 relative to HXB2 [10] [fold] | Fold resistance in IC50 relative to HXB2 [11] [fold] | Fold resistance in IC50 relative to HXB2 [12] [fold] | IC50 (wild type HXB2 virus) [µM] |
| --- | --- | --- | --- | --- | --- | --- | --- | --- | --- | --- | --- | --- | --- |
| Nc1nc(NC2CC2)c2ncn([C@H]3C=C[C@@H](CO)C3)c2n1 [Abacavir, abacavir] | 4.4 | 1.8 | 7.1 | 4.1 | 3.0 | 4.6 | 4.0 | 9.6 | 7.0 | 12.0 | 1.8 | 2.8 | 2.1 |
| Nc1ccn([C@H]2CC[C@@H](CO)O2)c(=O)n1 [ddC, zalcitabine] | 2.5 | 1.3 | 5.0 | 5.1 | 3.2 | 1.5 | 1.7 | 2.8 | 2.8 | 2.5 | 3.0 | 5.4 | 0.71 |
| O=c1[nH]cnc2c1ncn2[C@H]1CC[C@@H](CO)O1 [ddI, didanosine] | 0.9 | 0.3 | 8.0 | 2.4 | 4.3 | 2.5 | 2.1 | 5.0 | 3.8 | 6.5 | 2.5 | 3.5 | 1.6 |
